In patent US5399568A, “Methanoanthrancenyl piperidyl antipsychotics” (Imperial Chemical Industries plc, priority 1991, dated 1995):

What was measured:
[1] = biological target: T1, dopamine (DA) D-2 receptor (Rattus norvegicus, UniProt P61169); test: Test A: antagonism of [^3 H]-spiperone binding (D-2 receptor binding assay, rat striatal membranes); conditions: 0.5 nM [^3 H] spiperone, 40 nM ketanserin, pH 7.7, 37° C., 15 min, typical values, read-out: IC50 (drug concentration which produced a 50% displacement of [^3 H] spiperone)
T1 construct: rat striatal membranes were used; from tissue; host or cells: rat striatum (membranes)
T1 sequence (P61169 whole entry): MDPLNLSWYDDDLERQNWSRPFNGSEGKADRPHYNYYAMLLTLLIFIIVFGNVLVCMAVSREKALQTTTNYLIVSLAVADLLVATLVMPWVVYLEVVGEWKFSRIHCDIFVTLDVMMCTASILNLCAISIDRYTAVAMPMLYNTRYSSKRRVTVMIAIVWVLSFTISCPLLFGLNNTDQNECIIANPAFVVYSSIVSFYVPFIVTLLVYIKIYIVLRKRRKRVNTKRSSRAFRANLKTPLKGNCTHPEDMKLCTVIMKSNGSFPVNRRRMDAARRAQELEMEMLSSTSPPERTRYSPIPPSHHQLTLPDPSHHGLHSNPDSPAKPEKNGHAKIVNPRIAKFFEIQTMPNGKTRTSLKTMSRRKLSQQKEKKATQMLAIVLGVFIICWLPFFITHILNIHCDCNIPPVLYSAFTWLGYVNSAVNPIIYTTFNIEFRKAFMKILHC
Text: (§1) The compounds of Formula I are antagonists of dopamine D-2 receptors, and as such are predicted to be useful as antipsychotic drugs. D-2 antagonism can be shown by standard tests such as antagonism of [^3 H]-spiperone binding (Test A), and/or antagonism of apomorphine-induced climbing and apomorphine- induced disruption of swimming (Test B).
The receptor binding assay used to measure affinities of various compounds for the dopamine (DA) D-2 receptor subtype was that described by Saller and Salama in J Pharmacol Exp Ther 236, page 714, 1986.
Specifically, rat striatal membranes were used. Tissue membranes were prepared and washed once in 50 volumes of the appropriate Tris HCl buffer. For the D-2 receptor binding assay, striatal membranes were suspended to a final concentration of 8 mg/ml in 50 mM Tris HCl with 40 nM ketanserin, pH 7.7. Nonspecific binding to D-2 receptors was measured in the presence of 1.0 μM (+)-butaclamol. IC50 s (drug concentration which produced a 50% displacement) for the displacement of 0.5 nM [^3 H] spiperone were determined using at least five concentrations of each drug in triplicate. One-half milliliter of membrane suspension was incubated with the compound of interest or vehicle or nonspecific drug, ligand and appropriate Tris HCl buffer. The final reaction volume totaled 1 ml for each tube and was incubated at 37° C. for 15 min to facilitate binding and ensure equilibrium had been met. A Brandel filtering system equipped with GF/B filters was used to separate bound from free drug. The amount of drug bound to the membranes was assessed using liquid scintillation counting techniques. IC50 values were obtained from a least squares regression of a logit-log transformation of the data. Typical values in this test were, for example, 103 nM (nanomolar) for the compound of Example 6, 84 nM for the compound of Example 15, and 15 nM for the compound of Example 21.

[2] = test system: apomorphine-induced climbing and apomorphine-induced disruption of swimming; test: Test B: antagonism of apomorphine-induced climbing and apomorphine-induced disruption of swimming; format: in vivo; conditions: Mus musculus; oral, female Swiss-Webster mice, 30 min before apomorphine HCl 1.25 mg/kg sc; typical values; read-out: minimum effective dose (decrease in climbing score accompanied by increase in swimming score)
Method: as §1
Female Swiss-Webster mice weighing approximately 20 g were deprived of food for approximately 24 h and then dosed orally with various doses of either the vehicle or test agent over a range of doses (N=20 mice per treatment group). Thirty minutes later they were dosed with apomorphine HCl at 1.25 mg/kg, sc, and placed into climbing cages. The climbing cages were 9 cm wide, 15 cm deep and 30 cm high. One wall had 27 horizontal rungs spaced 1 cm apart. Thirteen minutes after apomorphine each mouse was observed continuously for 1 min and the highest and lowest rung reached by its front paws was recorded. The mean of these two scores was used as the score for that mouse. (The highest and lowest scores were 27 and 0, respectively.) Immediately after the 1-min climbing observation period each mouse was placed into a circular swimming tank for 2 min and the number of swims was counted. The height of the tank was 15 cm and the diameter was 28 cm. A circular obstacle measuring 10.5 cm in diameter and having a height of 17 cm was placed into the center of the tank, creating a circular swimming channel 8.75 cm wide. The water level was 5.5 cm and the water was kept at room temperature. Marks were placed on the floor and side of the tank 180 degrees apart. A "swim" was scored each time a mouse swam from one mark to the other. The mice were observed through overhead mirrors and the number of 180 degree swims was recorded for each mouse. Activity in this test was indicated by a decrease in the climbing score accompanied by an increase in the swimming score at a given dose of the test compound. Typical values of minimum effective doses in this test were 10 mg/kg for the compound of Example 6 and 20 mg/kg for each of the compounds of Examples 15 and 21.

IC50 [1] [nM]	SMILES	minimal effective dose [2] [mg/kg]
103	OC(c1cccnc1)C1CCN(CC23CC(c4ccccc42)c2ccccc23)CC1 (stereo not drawn) [Example 6, 1-[1-(9,10-Dihydro-9,10-methanoanthracen-9-ylmethyl)-4-piperidyl]-1-(3-pyridyl)methanol]	10
84	COc1cccc(C(O)C2CCN(CC34CC(c5ccccc53)c3ccc(Cl)cc34)CC2)c1 (racemic) [Example 15, (R,S)-1-[1-((9RS,10RS)-2-Chloro-9,10-dihydro-9,10-methanoanthracen-9-ylmethyl)-4-piperidyl]-1-(3-methoxyphenyl)methanol]	20
15	COc1ccc(C(O)C2CCN(CC34CC(c5ccccc53)c3ccc(Cl)cc34)CC2)cc1 (racemic) [Example 21, (R,S)-1-[1-((9RS, 10RS)-2-Chloro-9,10-dihydro-9,10-methanoanthracen-9-ylmethyl)-4-piperidyl]-1-(4-methoxyphenyl)methanol]	20
